Here are results for 15 compounds from publication PMC3165090 (Journal of medicinal chemistry, 2011).

Counter-ions that a name gives are not always drawn.

One experiment has as its target T1, human recombinant Top1 (Homo sapiens, UniProt P11387).
T1 sequence (P11387 1-765): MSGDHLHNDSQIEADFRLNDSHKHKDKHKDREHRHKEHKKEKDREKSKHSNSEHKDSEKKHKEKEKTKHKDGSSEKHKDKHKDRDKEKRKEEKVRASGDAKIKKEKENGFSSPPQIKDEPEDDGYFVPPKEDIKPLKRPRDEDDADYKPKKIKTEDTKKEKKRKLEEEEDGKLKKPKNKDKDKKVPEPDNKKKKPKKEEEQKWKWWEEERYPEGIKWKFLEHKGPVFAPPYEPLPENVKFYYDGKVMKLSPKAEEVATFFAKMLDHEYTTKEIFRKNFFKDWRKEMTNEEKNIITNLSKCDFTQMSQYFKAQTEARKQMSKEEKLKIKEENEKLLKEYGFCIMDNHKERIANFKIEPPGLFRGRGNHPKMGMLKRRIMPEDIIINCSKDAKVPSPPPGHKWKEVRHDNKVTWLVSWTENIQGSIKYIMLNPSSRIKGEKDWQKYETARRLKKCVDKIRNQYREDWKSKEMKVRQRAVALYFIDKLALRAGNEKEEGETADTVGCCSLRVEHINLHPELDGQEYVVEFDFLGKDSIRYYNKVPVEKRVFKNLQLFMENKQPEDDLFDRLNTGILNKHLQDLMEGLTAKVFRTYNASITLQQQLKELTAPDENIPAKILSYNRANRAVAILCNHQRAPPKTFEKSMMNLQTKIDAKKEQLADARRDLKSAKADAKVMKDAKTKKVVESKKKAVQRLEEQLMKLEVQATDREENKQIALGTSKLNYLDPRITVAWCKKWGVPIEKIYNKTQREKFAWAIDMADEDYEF
Put plainly: Top1-mediated DNA cleavage assay. The class given is biochemical. As to conditions: for Top1 cleavage: semiquantitative, relative Top1 inhibitory potency vs compounds 1 and 2, 117-bp DNA fragment; for concentration dependence of DNA cleavage band intensity: 0.1-100 μM, side-by-side comparison (Figure 4).

The test system of experiment [1] is all human cancer cell lines successfully tested. Put plainly: NCI screen, mean graph midpoint. The experiment is classed as cell-based. As to conditions: 48 h, read-out: cytotoxicity (GI50) MGM.
In a further experiment the test system is colon HCT-116. Put plainly: NCI screen cytotoxicity, colon HCT-116. The class given is cell-based. To be noted: Homo sapiens, HCT-116, 48 h, read-out: cytotoxicity (GI50) colon HCT-116.
The test system of the next experiment is melanoma UACC-62. Put plainly: NCI screen cytotoxicity, melanoma UACC-62. To be noted: Homo sapiens, UACC-62, 48 h, read-out: cytotoxicity (GI50) melanoma UACC-62. The class given is cell-based.
For the next experiment, the system named is renal SN12C. Put plainly: NCI screen cytotoxicity, renal SN12C. The experiment is classed as cell-based. As to conditions: Homo sapiens, 48 h, read-out: cytotoxicity (GI50) renal SN12C.
For a further experiment, the system named is SV40 DNA. Put plainly: DNA unwinding assay. The experiment is classed as biochemical. To be noted: for ability to unwind/intercalate into free DNA: range of tested concentrations 1-100 μM.
Another experiment relates to lung HOP-62. Put plainly: NCI screen cytotoxicity, lung HOP-62. The class given is cell-based. As to conditions: Homo sapiens, HOP-62, 48 h, read-out: cytotoxicity (GI50) lung HOP-62.
In another experiment the test system is prostate DU-145. Put plainly: NCI screen cytotoxicity, prostate DU-145. The experiment is classed as cell-based. As to conditions: Homo sapiens, DU-145, 48 h, read-out: cytotoxicity (GI50) prostate DU-145.

For the compound `CN(C)CCCn1c2c(c3ccccc3c1=O)C(=O)c1ccccc1-2` [Compound 33, reference compound], on human recombinant Top1, the Top1 cleavage result was “+++”.

As usually defined, the GI50 is the concentration at which growth is held to half of that of the control. `COc1cc2c3c(n(CCCN)c(=O)c2cc1OC)-c1ncccc1C3=O` [Compound 32, 7-Aza-5,6-dihydro-6-(3-aminopropyl)-2,3-dimethoxy-5,11-dioxo-11H-indeno[1,2-c]isoquinoline Hydrochloride]: on human recombinant Top1, the “concentration dependence of DNA cleavage band intensity” value (from here on “concentration dependence”) is given as “behave similarly to 19”. In addition, the GI50 in experiment [1] was 2090 nM.

Consider `CN(C)CCCn1c2c(c3ccc([N+](=O)[O-])cc3c1=O)C(=O)c1ccccc1-2` [Compound 35], for which the Top1 cleavage entry at human recombinant Top1 is on record as “+++”. In addition, the GI50 was determined as 9770 nM in experiment [1], 6460 nM in the experiment with colon HCT-116, 7080 nM in the experiment on melanoma UACC-62 and 4170 nM in the experiment with renal SN12C.

For `COc1cc2c3c(n(CCCNCCO)c(=O)c2cc1OC)-c1ncccc1C3=O` [Compound 31, 7-Aza-5,6-dihydro-6-(3-(2-hydroxyethylamino)propyl)-2,3-dimethoxy-5,11-dioxo-11H-indeno[1,2-c]isoquinoline Hydrochloride], the “concentration dependence” value at human recombinant Top1 is listed as “behave similarly to 19”. For the same compound, the 50% growth inhibitory concentration (GI50) in experiment [1] was determined as 290 nM.

As to `O=C1c2cccnc2-c2[nH]c(=O)c3cc([N+](=O)[O-])ccc3c21` [Compound 17, 7-Aza-5,6-dihydro-3-nitro-5,11-dioxo-11H-indeno[1,2-c]isoquinoline], the “ability to unwind/intercalate into free DNA” value in the experiment with SV40 DNA is on record as “allow intercalation into DNA in the absence of Top1”.

Regarding `O=C1c2cccnc2-c2c1c1ccc([N+](=O)[O-])cc1c(=O)n2CCCN1CCOCC1` [Compound 23, 7-Aza-5,6-dihydro-6-(3-morpholinopropyl)-3-nitro-5,11-dioxo-11H-indeno[1,2-c]isoquinoline Hydrochloride], the Top1 cleavage entry at human recombinant Top1 is on record as “+++”.

`O=C1c2cccnc2-c2c1c1ccccc1c(=O)n2CCCNCCO` [Compound 30, 7-Aza-5,6-dihydro-6-(3-(2-hydroxyethylamino)propyl)-5,11-dioxo-11H-indeno[1,2-c]isoquinoline Hydrochloride]: at human recombinant Top1, the Top1 cleavage entry was “+”. In addition, the GI50 in experiment [1] came to 1290 nM.

As to `COc1cc2c3c(n(CCCN4CCOCC4)c(=O)c2cc1OC)-c1ncccc1C3=O` [Compound 22, 7-Aza-5,6-dihydro-6-(3-morpholinopropyl)-2,3-dimethoxy-5,11-dioxo-11H-indeno[1,2-c]isoquinoline Hydrochloride], on human recombinant Top1, the “concentration dependence” value is reported as “concentration-dependent increase of intensity of DNA cleavage bands” and the Top1 cleavage entry was “++”. In the experiment with SV40 DNA, the “ability to unwind/intercalate into free DNA” value is recorded as “inability to unwind/intercalate into DNA”.

As to `CN(C)CCCn1c2c(c3ccccc3c1=O)C(=O)c1cccnc1-2` [Compound 18, 7-Aza-5,6-dihydro-6-(3-dimethylaminopropyl)-5,11-dioxo-11H-indeno[1,2-c]isoquinoline Hydrochloride], on human recombinant Top1, the Top1 cleavage entry is “+++”. For the same compound, in experiment [1], the GI50 was 1780 nM.

`O=C1c2cccnc2-c2c1c1ccccc1c(=O)n2CCCN1CCOCC1` [Compound 21, 7-Aza-5,6-dihydro-6-(3-morpholinopropyl)-5,11-dioxo-11H-indeno[1,2-c]isoquinoline Hydrochloride]: in experiment [1], the GI50 was found to be 15500 nM.

Turning to `COc1cc2c3c(n(CCCN(C)C)c(=O)c2cc1OC)-c1ncccc1C3=O` [Compound 19, 7-Aza-5,6-dihydro-6-(3-dimethylaminopropyl)-2,3-dimethoxy-5,11-dioxo-11H-indeno[1,2-c]isoquinoline Hydrochloride], the Top1 cleavage entry at human recombinant Top1 is “+++”. The GI50 in experiment [1] is 4500 nM. Also, in the experiment with SV40 DNA (at highest tested concentration, 100 μM), the “inhibition of Top1-mediated DNA relaxation” value was “completely inhibits the Top1-mediated DNA relaxation”.

Consider `O=C1c2cccnc2-c2c1c1ccccc1c(=O)n2CCCn1ccnc1` [Compound 28, 7-Aza-5,6-dihydro-6-(3-(1H-imidazol-1-yl)propyl)-5,11-dioxo-11H-indeno[1,2-c]isoquinoline], for which, at human recombinant Top1, the Top1 cleavage entry is reported as “++”.

As for `CC[C@@]1(O)C(=O)OCc2c1cc1n(c2=O)Cc2cc3ccccc3nc2-1` [Compound 1, camptothecin], the GI50 worked out at 10 nM in the experiment with lung HOP-62; 30 nM with colon HCT-116; 10 nM with melanoma UACC-62; 20 nM in the experiment on renal SN12C; 10 nM with prostate DU-145.

On to `CN(C)CCCn1c2c(c3ccc([N+](=O)[O-])cc3c1=O)C(=O)c1cccnc1-2` [Compound 20, 7-Aza-5,6-dihydro-6-(3-dimethylaminopropyl)-3-nitro-5,11-dioxo-11H-indeno[1,2-c]isoquinoline Hydrochloride], for which the GI50 in experiment [1] was 1860 nM.

For the compound `COc1cc2c3c(n(CCCn4ccnc4)c(=O)c2cc1OC)-c1ncccc1C3=O` [Compound 29, 7-Aza-5,6-dihydro-6-(3-(1H-imidazol-1-yl)propyl)-2,3-dimethoxy-5,11-dioxo-11H-indeno[1,2-c]isoquinoline], at human recombinant Top1, the “concentration dependence” value is given as “concentration-dependent increase of intensity of DNA cleavage bands” and the Top1 cleavage result is recorded as “++”.
